Laboratory results as given in patent publication US20150150995A1, “CONJUGATED ANTI-MICROBIAL COMPOUNDS AND CONJUGATED ANTI-CANCER COMPOUNDS AND USES THEREOF” (PONO CORPORATION, priority 2012, published 2015).
Structures can show the parent of a compound that is named as a salt. Where two headings read alike, the source gives them in different places.

How the values were obtained:
[1] = tested on: carbapenem-resistant enterobacteriaceae (CRE); test: Minimum inhibitory concentration (MIC) test against CRE; format: cell-based; conditions: drug resistant gram negative bacterium
Method: (§1) This complex can be easily compared to the cefazolin sodium salt by testing the minimum inhibitory concentration (MIC). Initial tests were performed against a drug resistant gram negative bacterium; carbapenem-resistant enterobacteriaceae (CRE) and a drug resistant gram positive bacterium; methicillin-resistant staphylococcus aureus (MRSA). […] By transforming the cefazolin sodium salt into a silver complex, it changes the antibiotic that CRE and MRSA are resistant to, to a compound that CRE and MRSA are susceptible to. Thus, in several embodiments, the compositions provided for herein lead to a heretofore unseen efficacy against drug-resistant microorganisms.

[2] = tested on: methicillin-resistant staphylococcus aureus (MRSA); test: Minimum inhibitory concentration (MIC) test against MRSA; format: cell-based
Method: as §1

Compound	MIC ([1]; read-out: MIC) [µg/mL]	MIC ([2]; Staphylococcus aureus) [µg/mL]	MIC [1] [µg/mL]	MIC ([2]; drug resistant gram positive bacterium) [µg/mL]
Cc1nnc(SCC2=C(C(=O)O)N3C(=O)[C@@H](NC(=O)Cn4cnnn4)[C@H]3SC2)s1 [cefazolin sodium salt, Cefazolin sodium salt]	> 256	256	–	–
cefazolin silver complex	–	–	4	4
